The results in this text go back to patent US12479846B2, “EZH2 inhibitor and use thereof” (PHARMABLOCK SCIENCES (NANJING) , INC., priority 2019, dated 2025).

For assay [1], the system named is WSUDLCL-2 cells. As to the kind of experiment: Cell proliferation inhibition test (CCK8), WSUDLCL-2. It counts as cell-based. Conditions: Homo sapiens, WSUDLCL2, 288 h; B-cell non-Hodgkin's lymphoma cell line, 12 days incubation, CCK8 cell viability. The source says:
(§1) Cell Proliferation Inhibition Test
(§2) Karpass 422 and WSUDLCL-2 cells were purchased from the European Collection of Authenticated Cell Cultures (ECACC) and the German Collection of Microorganisms and Cell Cultures (Deutsche Sammlung von Mikroorganismen und Zellkulturen, DSMZ). RMBI 1640 medium, penicillin-streptomycin, heat-inactivated fetal bovine senum (FBS), and horse serum were purchased from ThermoFisher (Waltham MA, USA). Corning 96-well cell culture plate was purchased from ThermoFisher (Waltham MA, USA).
(§3) To evaluate the inhibitory effect of the synthesized compounds on the proliferation of B-cell non-Hodgkin's lymphoma Karpass 422 and WSUDLCL-2 cells, exponentially growing cells were inoculated in RMPI1640 medium containing 20% and 10% horse serum and 1% penicillin-streptomycin at concentrations of 2000 cells/ml and 3000 cells/ml, respectively, in 96-well plates, 100 μL per well, and incubated overnight in an incubator at 37° C. and 5% CO2. The compound was prepared in DMSO into a 10-point, 3-fold series diluent, starting at 6 mM. 1 μL of DMSO solution from a compound reserve plate was added to 99 μL of cell culture medium (the final maximum concentration of the compound in the assay was 30 μM and the final concentration of DMSO was 0.5%). 100 μL of compound solution from the medium was added to each well of the Karpass422 cell plate. After the addition of the compound solution, the assay plate was incubated at 37° C. and 5% CO2 for 12 days. During the incubation, the cell culture medium was replaced with the cell culture medium having the newly dissolved test compound every 4 days. After 100 μL of the old medium was removed from the cell plate, 100 μL of medium having dissolved test compound was added to the assay plate, which was prepared by adding 1 μL of compound DMSO series solution to 199 μL of cell medium with the same layout as the original preparation layout. Cell viability was measured by using cell count kit-8 (CCK8) purchased from Beyotime Biotechnology (Shanghai, China). 20 μL of CCK8 reagent was added to each well of the assay plate and incubated at 37° C. for 2 hours. The O.D. at 450 nm was read by using a FlexStation 3 microplate reader (Molecular Devices, Sunnyvale, CA 94089 USA).

The test system of assay [2] is Karpas422 cells. As to the kind of experiment: Cell proliferation inhibition test (CCK8), Karpas422. It counts as cell-based. To be noted: Homo sapiens, KARPAS-422, 288 h; B-cell non-Hodgkin's lymphoma cell line, 12 days incubation, CCK8 cell viability.
Source text: as §1, §2, §3

In assay [3] the target is T1, Wild-type PRC2/EZH2 (Homo sapiens, UniProt Q15910).
T1 construct: purchased Reaction Biology (Malvern, PA); host or cells: insect cell/baculovirus expression system
Put plainly: PRC2/EZH2 HTRF enzyme inhibition test. It counts as biochemical. To be noted: human recombinant PRC2 complex, 30 μM SAM, 10 μM biotin-H3 (21-44) peptide.
Source text: The human recombinant PRC2 complex was composed of human recombinant EZH2, AEBP2, EED, RbAp48, and SUZ12, co-expressed in an insect cell/baculovirus expression system, and purchased from Reaction Biology (Malvern, PA). […] The HTRF detection kit including monoclonal antibody histone H3K27Mel-Eu (K) fluorescent donor and streptavidin labeled XL665 fluorescent receptor was purchased from Cisbio (Shanghai, China). S-adenosylmethionine (SAM), Tween 20, dimethyl sulfoxide (DMSO), and Tris buffer at the highest purity level were purchased from Sigma.
The experiment was carried out in a buffer consisting of 50 mM Tris, pH 9.0, 0.1% BSA, and 0.01% Tween 20, and 1 mM DTT was added before the experiment started. 2.5 μL of a solution of a compound in 4% DMSO and 5 μL of PRC2/SAM mixed solution pre-incubated for 30 minutes were added to the buffer, and then the buffer was added to a white low-volume 384-well microtiter plate. The mixture solution was gently shaken and incubated at room temperature for 15 minutes. 2.5 μL of biotin-H3 (21-44) peptide substrate solution was added to the buffer to initiate the methyl transfer reaction. The final concentrations of PRC2, SAM, biotin-H3 peptide substrate, and DMSO were 2 ng/L, 30 μM, 10 μM, and 1%, respectively. The reaction was gently shaken at room temperature away from light for 120 minutes, and then 10 μL of monoclonal antibody histone H3K27Mel-Eu (K) fluorescent donor and streptavidin-labeled XL665 fluorescent receptor in the detection buffer from the manufacturer were added to the reaction mixture for incubation for 60 minutes. The final concentrations of these two reagents were 50 ng/ml and 62.5 nM, respectively. The plate was read on an Envision multi-template reader from PerkinElmer (Waltham MA USA) with an excitation wavelength of 320 nm and emission wavelengths of 665 and 615 nm. The IC50 value of the inhibitor was obtained by fitting an S-shaped dose-response curve (variable slope, four parameters) of fluorescence intensities at 665 nm and 615 nm over inhibitor concentrations by using Prism 7 (La Jolla, CA).

T1 sequence (Q15910 whole entry): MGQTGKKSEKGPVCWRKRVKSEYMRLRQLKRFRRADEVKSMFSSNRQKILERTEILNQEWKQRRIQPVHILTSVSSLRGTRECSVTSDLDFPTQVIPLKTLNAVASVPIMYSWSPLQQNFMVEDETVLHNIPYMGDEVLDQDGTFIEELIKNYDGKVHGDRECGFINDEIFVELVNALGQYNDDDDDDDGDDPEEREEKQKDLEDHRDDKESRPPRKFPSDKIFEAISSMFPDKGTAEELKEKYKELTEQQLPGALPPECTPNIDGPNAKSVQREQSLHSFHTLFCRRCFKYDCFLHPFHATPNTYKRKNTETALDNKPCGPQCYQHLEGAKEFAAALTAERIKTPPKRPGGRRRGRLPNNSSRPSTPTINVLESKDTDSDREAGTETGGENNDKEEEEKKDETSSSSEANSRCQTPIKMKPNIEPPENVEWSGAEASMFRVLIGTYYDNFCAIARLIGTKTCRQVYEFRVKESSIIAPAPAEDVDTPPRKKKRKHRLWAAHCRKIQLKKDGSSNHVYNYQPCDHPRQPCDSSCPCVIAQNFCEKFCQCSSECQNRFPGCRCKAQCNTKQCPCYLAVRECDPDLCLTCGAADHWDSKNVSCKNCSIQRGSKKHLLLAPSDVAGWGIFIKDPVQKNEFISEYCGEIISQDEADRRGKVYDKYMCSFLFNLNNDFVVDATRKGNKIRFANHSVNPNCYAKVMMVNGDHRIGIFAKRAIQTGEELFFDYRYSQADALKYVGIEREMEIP
T1 sequence (Q6ZN18 whole entry partner): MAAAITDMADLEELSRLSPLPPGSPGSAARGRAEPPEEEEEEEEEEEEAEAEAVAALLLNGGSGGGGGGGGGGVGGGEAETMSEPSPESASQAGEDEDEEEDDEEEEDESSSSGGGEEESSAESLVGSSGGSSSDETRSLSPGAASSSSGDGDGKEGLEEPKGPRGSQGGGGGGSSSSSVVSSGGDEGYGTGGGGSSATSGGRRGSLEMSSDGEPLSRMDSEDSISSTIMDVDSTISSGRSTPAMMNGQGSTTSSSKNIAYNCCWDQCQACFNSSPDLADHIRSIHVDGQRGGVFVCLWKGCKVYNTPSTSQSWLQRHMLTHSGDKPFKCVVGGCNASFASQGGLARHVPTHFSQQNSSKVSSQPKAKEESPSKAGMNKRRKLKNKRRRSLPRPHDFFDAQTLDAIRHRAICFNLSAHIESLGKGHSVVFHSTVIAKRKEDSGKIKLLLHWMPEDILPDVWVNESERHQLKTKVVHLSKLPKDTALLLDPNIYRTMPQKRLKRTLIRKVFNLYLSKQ
T1 sequence (O75530 whole entry partner): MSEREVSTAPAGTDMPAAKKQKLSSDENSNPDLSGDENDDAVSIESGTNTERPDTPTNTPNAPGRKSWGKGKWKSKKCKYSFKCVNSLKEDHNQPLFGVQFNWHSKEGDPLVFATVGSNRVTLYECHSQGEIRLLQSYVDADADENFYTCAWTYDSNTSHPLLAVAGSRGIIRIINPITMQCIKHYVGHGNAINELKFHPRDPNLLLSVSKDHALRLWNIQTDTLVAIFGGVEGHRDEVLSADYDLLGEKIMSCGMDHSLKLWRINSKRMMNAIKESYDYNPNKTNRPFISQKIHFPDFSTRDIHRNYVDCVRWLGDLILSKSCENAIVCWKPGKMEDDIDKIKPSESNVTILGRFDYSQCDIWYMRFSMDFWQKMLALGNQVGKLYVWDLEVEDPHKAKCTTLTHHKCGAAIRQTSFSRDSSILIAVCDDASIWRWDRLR
T1 sequence (Q09028 whole entry partner): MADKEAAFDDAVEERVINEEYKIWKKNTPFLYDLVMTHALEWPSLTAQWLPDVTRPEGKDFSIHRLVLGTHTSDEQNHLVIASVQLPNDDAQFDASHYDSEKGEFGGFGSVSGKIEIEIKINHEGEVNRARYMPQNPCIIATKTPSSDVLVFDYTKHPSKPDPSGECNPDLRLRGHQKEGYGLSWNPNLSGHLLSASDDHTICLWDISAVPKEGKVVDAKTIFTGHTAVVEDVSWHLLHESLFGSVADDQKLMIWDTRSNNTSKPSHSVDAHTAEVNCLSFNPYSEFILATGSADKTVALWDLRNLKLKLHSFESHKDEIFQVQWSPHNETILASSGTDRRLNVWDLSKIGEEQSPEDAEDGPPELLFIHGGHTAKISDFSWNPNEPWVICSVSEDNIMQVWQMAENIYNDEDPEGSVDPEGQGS
T1 sequence (Q15022 whole entry partner): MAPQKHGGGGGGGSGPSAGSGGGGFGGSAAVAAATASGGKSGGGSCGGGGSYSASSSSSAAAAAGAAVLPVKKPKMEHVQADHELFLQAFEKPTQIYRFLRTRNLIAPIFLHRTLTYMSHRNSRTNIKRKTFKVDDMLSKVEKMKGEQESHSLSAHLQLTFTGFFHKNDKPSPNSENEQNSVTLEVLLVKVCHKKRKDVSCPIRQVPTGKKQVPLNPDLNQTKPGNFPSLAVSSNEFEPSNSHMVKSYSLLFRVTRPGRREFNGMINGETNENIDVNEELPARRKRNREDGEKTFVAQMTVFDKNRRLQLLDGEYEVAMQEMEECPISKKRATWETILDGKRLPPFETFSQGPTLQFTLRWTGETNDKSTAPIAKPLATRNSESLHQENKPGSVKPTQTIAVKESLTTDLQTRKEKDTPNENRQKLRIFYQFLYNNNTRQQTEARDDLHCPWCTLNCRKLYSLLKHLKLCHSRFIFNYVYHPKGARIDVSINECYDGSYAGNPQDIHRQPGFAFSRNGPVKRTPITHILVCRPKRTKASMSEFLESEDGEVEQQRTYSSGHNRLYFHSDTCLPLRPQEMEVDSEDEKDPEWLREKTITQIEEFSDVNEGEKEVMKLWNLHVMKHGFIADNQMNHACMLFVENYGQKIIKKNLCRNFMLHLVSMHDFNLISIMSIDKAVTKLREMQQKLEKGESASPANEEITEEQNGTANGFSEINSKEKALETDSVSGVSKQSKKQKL

For `COc1cc(C)[nH]c(=O)c1CN1CCn2ccc3cc(-c4c(C)noc4C)c(Cl)c(c32)C1=O` [Compound 1, 10-chloro-9-(3,5-dimethylisoxazol-4-yl)-2-((4-methoxy-6-methyl-2-oxo-1,2-dihydropyridin-3-yl)methyl)-3,4-dihydro-[1,4]diazepino[6,7,1-HI]indol-1(2H)-one], the IC50 in assay [1] was 3.8 nM; in assay [2], 52 nM.

Consider `CCN(c1cc2ccn3c2c(c1Cl)C(=O)N(Cc1c(OC)cc(C)[nH]c1=O)CC3)C1COC1` [Compound 2, 10-chloro-9-(ethyl(oxetan-3-yl)amino)-2-((4-methoxy-6-methyl-2-oxo-1,2-dihydropyridin-3-yl)methyl)-3,4-dihydro-[1,4]diazepino[6,7,1-HI]indol-1(2H)-one], for which the IC50 in assay [3] was determined as 3.8 nM.

For the compound `COc1cc(C)[nH]c(=O)c1CN1CCN2CCc3cc(-c4c(C)noc4C)c(Cl)c(c32)C1=O` [Compound 3, 10-chloro-9-(3,5-dimethylisoxazol-4-yl)-2-((4-methoxy-6-methyl-2-oxo-1,2-dihydropyridin-3-yl)methyl)-3,4,6,7-tetrahydro-[1,4]diazepino[6,7,1-HI]indol-1(2H)-one], the IC50 in assay [3] stood at 19.9 nM.

With `COc1cc(C)[nH]c(=O)c1CN1CCn2ccc3cc(-c4c(C)nn(C)c4C)c(Cl)c(c32)C1=O` [Compound 4, 10-chloro-2-((4-methoxy-6-methyl-2-oxo-1,2-dihydropyridin-3-yl)methyl)-9-(1,3,5-trimethyl-1H-pyrazol-4-yl)-3,4-dihydro-[1,4]diazepino[6,7,1-HI]indol-1(2H)-one], the IC50 in assay [3] came out at 2530 nM.

`COc1cc(C)[nH]c(=O)c1CN1CCn2ccc3cc(-c4c(C)cnn4C)c(Cl)c(c32)C1=O` [Compound 5, 10-chloro-9-(1,4-dimethyl-1H-pyrazol-5-yl)-2-((4-methoxy-6-methyl-2-oxo-1,2-dihydropyridin-3-yl)methyl)-3,4-dihydro-[1,4]diazepino[6,7,1-HI]indol-1(2H)-one]: the IC50 in assay [3] was 253 nM.

Regarding `COc1cc(C)[nH]c(=O)c1CN1CCn2cc(Cl)c3cc(-c4c(C)cnn4C)c(Cl)c(c32)C1=O` [Compound 6, 7,10-dichloro-9-(1,4-dimethyl-1H-pyrazol-5-yl)-2-((4-methoxy-6-methyl-2-oxo-1,2-dihydropyridin-3-yl)methyl)-3,4-dihydro-[1,4]diazepino[6,7,1-HI]indol-1(2H)-one], the IC50 in assay [3] stood at 1120 nM.

In the case of `COc1cc(C)[nH]c(=O)c1CN1CCn2ccc3cc(-c4c(C)nn(CCO)c4C)c(Cl)c(c32)C1=O` [Compound 7, 10-chloro-9-(1-(2-hydroxyethyl)-3,5-dimethyl-1H-pyrazol-4-yl)-2-((4-methoxy-6-methyl-2-oxo-1,2-dihydropyridin-3-yl)methyl)-3,4-dihydro-[1,4]diazepino[6,7,1-HI]indol-1(2H)-one], in assay [3], the IC50 is 3650 nM.

`COc1cc(C)[nH]c(=O)c1CN1CCn2ccc3cc(-c4c(C)nn(CC#N)c4C)c(Cl)c(c32)C1=O` [Compound 8, 2-(4-(10-chloro-2-((4-methoxy-6-methyl-2-oxo-1,2-dihydropyridin-3-yl)methyl)-1-oxo-1,2,3,4-tetrahydro-[1,4]diazepino[6,7,1-HI]indol-9-yl)-3,5-dimethyl-1H-pyrazol-1-yl)acetonitrile]: the IC50 in assay [3] turned out to be 1090 nM.

For `COc1cc(C)[nH]c(=O)c1CN1CCn2ccc3cc(C(OC)C4COC4)c(Cl)c(c32)C1=O` (stereo not shown) [Compound 9, 10-chloro-9-(methoxy(oxetan-3-yl)methyl)-2-((4-methoxy-6-methyl-2-oxo-1,2-dihydropyridin-3-yl)methyl)-3,4-dihydro-[1,4]diazepino[6,7,1-HI]indol-1(2H)-one], the IC50 in assay [3] came out at 21.5 nM.

For the compound `COc1cc(C)[nH]c(=O)c1CN1CCn2ccc3cc([C@H](OC)C4COC4)c(Cl)c(c32)C1=O` [Compound 10, (R)-10-chloro-9-(methoxy(oxetan-3-yl)methyl)-2-((4-methoxy-6-methyl-2-oxo-1,2-dihydropyridin-3-yl)methyl)-3,4-dihydro-[1,4]diazepino[6,7,1-HI]indol-1(2H)-one], the IC50 was 7.2 nM in assay [3], 2.4 nM in assay [1] and 11.4 nM in assay [2].

As to `COc1cc(C)[nH]c(=O)c1CN1CCn2ccc3cc([C@@H](OC)C4COC4)c(Cl)c(c32)C1=O` [Compound 11, (S)-10-chloro-9-(methoxy(oxetan-3-yl)methyl)-2-((4-methoxy-6-methyl-2-oxo-1,2-dihydropyridin-3-yl)methyl)-3,4-dihydro-[1,4]diazepino[6,7,1-HI]indol-1(2H)-one], the results for the IC50 in assay [3], in assay [1] and in assay [2] were 557 nM, 104 nM and 934 nM, respectively.

Turning to `COc1cc(C)[nH]c(=O)c1CN1CCn2ncc3cc(-c4c(C)noc4C)c(Cl)c(c32)C1=O` [Compound 12, 5-chloro-4-(3,5-dimethylisoxazol-4-yl)-7-((4-methoxy-6-methyl-2-oxo-1,2-dihydropyridin-3-yl)methyl)-8,9-dihydro-[1,4]diazepino[6,7,1-HI]indazol-6(7H)-one], the IC50 was 11 nM in assay [1] and 87.6 nM in assay [2].

Turning to `COc1cc(C)[nH]c(=O)c1CN1CCn2cnc3cc(-c4c(C)noc4C)c(Cl)c(c32)C1=O` [Compound 13, 5-chloro-4-(3,5-dimethylisoxazol-4-yl)-7-((4-methoxy-6-methyl-2-oxo-1,2-dihydropyridin-3-yl)methyl)-8,9-dihydro-2,7,9a-triazabenzo[cd]azulen-6(7H)-one], the results for the IC50 in assay [1] and in assay [2] were 56.1 nM and 359 nM, respectively.

As for `COc1cc(C)[nH]c(=O)c1CN1CCn2ccc3cc(C(OC)C4COC4)c(C)c(c32)C1=O` (stereo not shown) [Compound 14, 9-(methoxy(oxetan-3-yl)methyl)-2-((4-methoxy-6-methyl-2-oxo-1,2-dihydropyridin-3-yl)methyl)-10-methyl-3,4-dihydro-[1,4]diazepino[6,7,1-HI]indol-1(2H)-one], the IC50 in assay [3] turned out to be 11.8 nM; in assay [1], 4.8 nM; in assay [2], 28.7 nM.

As to `COc1cc(C)[nH]c(=O)c1CN1CCn2ccc3cc(-c4c(C)noc4C)c(C)c(c32)C1=O` [Compound 15, 9-(3,5-dimethylisoxazol-4-yl)-2-((4-methoxy-6-methyl-2-oxo-1,2-dihydropyridin-3-yl)methyl)-10-methyl-3,4-dihydro-[1,4]diazepino[6,7,1-HI]indol-1(2H)-one], the IC50 in assay [3] was found to be 17.8 nM; in assay [1], 1.2 nM; in assay [2] it was 50.1 nM.

On to `COc1cc(C)[nH]c(=O)c1CN1CC(C)n2ccc3cc(-c4c(C)noc4C)c(Cl)c(c32)C1=O` (stereo not shown) [Compound 16, 10-chloro-9-(3,5-dimethylisoxazol-4-yl)-2-((4-methoxy-6-methyl-2-oxo-1,2-dihydropyridin-3-yl)methyl)-4-methyl-3,4-dihydro-[1,4]diazepino[6,7,1-HI]indol-1(2H)-one], for which the results for the IC50 in assay [1] and in assay [2] were 4.6 nM and 158 nM, respectively.

As to `COc1cc(C)[nH]c(=O)c1CN1C(=O)c2c(Cl)c(-c3c(C)noc3C)cc3ccn(c23)CC1C` (stereo not shown) [Compound 17, 10-chloro-9-(3,5-dimethylisoxazol-4-yl)-2-((4-methoxy-6-methyl-2-oxo-1,2-dihydropyridin-3-yl)methyl)-3-methyl-3,4-dihydro-[1,4]diazepino[6,7,1-HI]indol-1(2H)-one], the results for the IC50 in assay [3], in assay [1] and in assay [2] were 14 nM, 1.2 nM and 35 nM, respectively.
